Values joined by “and” are separate entries in the source; they are usually repeats but may differ in a detail not shown here. Identical values can stand only once.
What was measured:
[1] = tested on: library of 8380 IKZF3 degrons fused to EGFP in Jurkat cells; test: Pooled mutant ZF degron library screen (FACS EGFPlow vs EGFP+, NGS), 18 h; type: cell-based, human;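 for logFC: Log2 fold change of EGFPlow over EGFP+ representation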
[2] = target: T1, WT IKZF3-derived degron fused to EGFP (Homo sapiens, UniProt Q96SW2+Q9UKT9); test: Ratiometric EGFP:mCherry flow cytometry degradation assay, 18 h; type: cell-based; details: Jurkat; for Degradation pDC50 WT: Fig 2B; for DC50 / pDC50: WT degron, Fig 5A
T1 construct: Plasmid: pLVX-Sprout-IKZF3 130-189aa (WT); expressed in transfected cells

[3] = target: APIS mutant ZF degron fused to EGFP (Homo sapiens, UniProt Q96SW2+Q9UKT9, N149P/Q147A/Q150I); test: as above
[4] = target: T2, endogenous IKZF3 in Jurkat cells (Homo sapiens, UniProt Q96SW2+Q9UKT9); test: Western blot for endogenous IKZF3; type: cell-based; details: 18 h; for endogenous IKZF3 levels (Western blot): transduced Jurkat cells; for degradation of endogenous IKZF3 (Western blot): untransduced Jurkat cells
T2 construct: endogenous in cells; host or cells: Jurkat (transduced with ZF-EGFP constructs, or untransduced)

[5] = target: T3, Q147A mutant degron (ANQS) fused to EGFP (Homo sapiens, UniProt Q96SW2+Q9UKT9, Q147A); test: Ratiometric EGFP:mCherry flow cytometry degradation assay, 18 h; type: cell-based; details: for Dmax: Fig 2B, read-out: DMax Q147A/%
T3 construct: pLVX-Sprout-IKZF3 130-189aa Q147A (ANQS); expressed in transfected cells

[6] = target: T4, endogenous IKZF1 in Jurkat cells (Homo sapiens, UniProt Q13422+Q96SW2); test: Endogenous IKZF1 immunostaining, fluorescent antibody flow cytometry assay; type: cell-based; details: 18 h
T4 construct: endogenous in cells; host or cells: Jurkat (untransduced for immunostaining; WEIS-EGFP-transduced for the blot)
Description: As we sought to screen a large number of mutant ZF degrons with different mutation combinations, we pursued a library screen approach similar to that previously employed by Sievers et al. and Jan et al. , Only the most promising compounds from the original set of 36 were used for the library screen. To help narrow the candidates, a subset of compounds was tested for endogenous IKZF1 degradation in Jurkat cells using a fluorescent antibody flow cytometry assay (Figure S5). […] Thalidomide and lenalidomide were also included as controls.
Endogenous IKZF1 Immunostaining
37 °C and 5% CO2. Following incubation, cells were stained with LIVE/DEAD™ Fixable Aqua Dead Cell Stain (Thermo) diluted 1000X in PBS for 30 min at room temperature and then incubated with Human TruStain FcX block (Biolegend) diluted 40X in PBS + 1% FBS (Gibco) for 10 min at room temperature. Intranuclear staining of IKZF1 was carried out using the Transcription Factor Buffer Set (BD Bioscience) according to the manufacturer's protocol and staining with IKZF1 AF488 antibody (clone R32-1149, BD Bioscience) diluted 40X for 30 minutes at room temperature. Cells were acquired on a Cytoflex S (Beckman Coulter) and data analysed using FlowJo 10.8.1 9 (BD).

Jurkat cells = test: TMTpro quantitative proteomics, 16 h; details: Jurkat, 10 μM, 16 h; 9644 quantified proteins
Description: (§1) Quantitative proteomics screens were carried out in untransduced Jurkat cells, embryonic stem cells (ESCs), and the multiple myeloma cell line, MM.1S. We used Jurkat cells, as our work up to this point had employed this cell line, and we selected ESCs and MM.1S cells as they express known CRBN neosubstrates, including IKZF1, IKZF3, RAB28, RNF166, SALL4, ZFP91, and ZNF827.
(§2) Proteomics - cell lysis and protein digestion
(§3) The viability of Jurkat cells was tested after 16-h treatment with corresponding chemicals
viable cells in each condition. Next, ~10^7 cells per condition were collected by centrifugation (1000 rpm), washed twice with ice-cold PBS, and lysed in RIPA buffer [50 mM HEPES pH 7.4, 150 mM NaCl, 1% sodium deoxycholate, 1% NP-40, 0.1% SDS, 10 mM sodium pyrophosphate, 10 mM β-glycerophosphate, 2.5 mM MgCl2, 200 µM TCEP, phosphatase and protease inhibitor cocktail (in-house)], to produce whole cell extracts. Whole-cell extracts were sonicated, and protein concentrations were determined using the Bradford assay. Protein extracts (100 µg) were subjected to disulfide bond reduction with 5 mM TCEP (10 min) and alkylation with 25 mM chloroacetamide (20 min). Methanol–chloroform precipitation was performed prior to protease digestion. In brief, four parts of neat methanol were added to each sample and vortexed, one part chloroform was added to the sample and vortexed, and finally, three parts water was added to the sample and vortexed. The sample was centrifuged at 8000 rpm for 5 min at room temperature and subsequently washed twice with 100% methanol. Samples were resuspended in 100 mM EPPS pH8.5 containing
0.1% RapiGest and digested at 37 °C for 6 h with trypsin at a 100:1 protein-to-protease ratio.
Samples were then subjected to TMTpro
labeling. The preparation of MM1S cell extracts was conducted using the same procedure as for
Jurkat cells. ESC cells were plated onto 6 cm dishes 24 hours prior to the chemical treatment.
Following the chemical treatment, the cells on the dish were washed with DPBS four times, after
which RIPA buffer was added directly to the dish, and the lysate was collected using a scraper.
The whole cell lysates were then processed similarly to the Jurkat cell lysates.
Proteomics - Tandem mass tag labeling
Proline-based reporter isobaric Tandem Mass Tag (TMTpro) labeling of dried peptide samples
resuspended in 100 mM EPPS pH 8.5, was carried out as follows. TMTpro reagent was added to
samples (100 µg peptide), along with acetonitrile, to achieve a final acetonitrile concentration of
approximately 30% (v/v). Following incubation at room temperature for 1 h, the labeling efficiency
of a small aliquot was tested. The reaction was then quenched with hydroxylamine to a final
concentration of 0.5% (v/v) for 15 min. The TMTpro-labeled samples were pooled together at a
1:1 ratio. The sample was vacuum centrifuged to near dryness and subjected to C18 solid-phase
The dried TMTpro-labeled sample was resuspended in 100 μL of 10 mM NH4HCO3 pH 8.0 and
fractionated using basic pH reverse phase HPLC 40. Briefly, samples were offline fractionated over
a 90 min run, into 96 fractions by high pH reverse-phase HPLC (Agilent LC1260) through an aeris
peptide xb-c18 column (Phenomenex; 250 mm × 3.6 mm) for total proteome with mobile phase A
containing 5% acetonitrile and 10 mM NH4HCO3, and mobile phase B containing 90% acetonitrile

[7] = target: T5, TRIM28 with N-terminal WEIS degron tag and HiBit tag (Homo sapiens, UniProt Q96SW2+Q9UKT9, N149E/Q147W/Q150I); test: HiBiT luminescence degradation assay; type: cell-based; details: Jurkat, 24 h
T5 construct: pLVX-Sprout-IKZF3 130-189aa Q147W N149E Q150I (WEIS); TRIM28 (fusion partner / protein of interest, gene TRIM28, human entry Q13263 by my knowledge); expressed in transfected cells; host or cells: Jurkat, lentiviral transduction; endogenous TRIM28 knocked out by CRISPR

[8] = tested on: embryonic stem cells (ESCs); test: TMTpro quantitative proteomics, 16 h; details: 10 μM
Description: as §1, §2, §3
viable cells in each condition. Next, ~10^7 cells per condition were collected by centrifugation (1000 rpm), washed twice with ice-cold PBS, and lysed in RIPA buffer [50 mM HEPES pH 7.4, 150 mM NaCl, 1% sodium deoxycholate, 1% NP-40, 0.1% SDS, 10 mM sodium pyrophosphate, 10 mM β-glycerophosphate, 2.5 mM MgCl2, 200 µM TCEP, phosphatase and protease inhibitor cocktail (in-house)], to produce whole cell extracts. Whole-cell extracts were sonicated, and protein concentrations were determined using the Bradford assay. Protein extracts (100 µg) were subjected to disulfide bond reduction with 5 mM TCEP (10 min) and alkylation with 25 mM chloroacetamide (20 min). Methanol–chloroform precipitation was performed prior to protease digestion. […]

HA-CDK9-WEIS = target: T6, HA-CDK9-WEIS (Homo sapiens, UniProt Q96SW2+Q9UKT9, N149E/Q147W/Q150I); test: HA antibody immunoblotting in HEK293T cells; type: cell-based; details: 18 h, Western blot
T6 construct: IKZF3 130aa-142aa 170-189aa fused to EGFP; CDK9 (protein of interest, fusion partner N-terminal of the degron); expressed in transfected cells; host or cells: HEK293T, lentivirally transduced (Cilantro2-derived plasmid, Addgene #74450, EGFP replaced by HA-POI-WEIS)

[9] = WT degron, residues 146/147/149/150/152/153/154/155/167: FQNQGASFL
[10] = degron residues 146/147/149/150/152/153/154/155/167: FADIGAAFL
[11] = degron residues 146/147/149/150/152/153/154/155/167: FADIGACFL
[12] = degron residues 146/147/149/150/152/153/154/155/167: FADIGADFL
[13] = degron residues 146/147/149/150/152/153/154/155/167: FADIGAEFL
[14] = degron residues 146/147/149/150/152/153/154/155/167: FWEIGACFL
[15] = degron residues 146/147/149/150/152/153/154/155/167: FWEIGAKFL (WEIK)

Chain of APIS mutant ZF degron fused to EGFP (Q9UKT9 130-189 Q147A/N149P/Q150I): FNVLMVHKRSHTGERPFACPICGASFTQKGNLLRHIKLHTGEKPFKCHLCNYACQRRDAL
Chain of APIS mutant ZF degron fused to EGFP (Q96SW2 whole entry, the tested form may be a part): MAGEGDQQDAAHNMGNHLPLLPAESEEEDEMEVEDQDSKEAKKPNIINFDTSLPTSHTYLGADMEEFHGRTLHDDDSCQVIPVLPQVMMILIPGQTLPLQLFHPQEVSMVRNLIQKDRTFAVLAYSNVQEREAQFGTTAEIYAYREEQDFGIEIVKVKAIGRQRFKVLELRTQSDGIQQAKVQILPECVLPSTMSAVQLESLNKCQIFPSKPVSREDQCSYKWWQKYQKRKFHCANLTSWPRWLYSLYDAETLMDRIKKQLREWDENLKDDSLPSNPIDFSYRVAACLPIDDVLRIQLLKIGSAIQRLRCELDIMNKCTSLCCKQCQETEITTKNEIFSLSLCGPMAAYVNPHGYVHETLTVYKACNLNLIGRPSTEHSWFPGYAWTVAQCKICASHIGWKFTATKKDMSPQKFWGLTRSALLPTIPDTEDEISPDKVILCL
Chain of APIS mutant ZF degron fused to EGFP (Q16531 whole entry partner, the tested form may be a part): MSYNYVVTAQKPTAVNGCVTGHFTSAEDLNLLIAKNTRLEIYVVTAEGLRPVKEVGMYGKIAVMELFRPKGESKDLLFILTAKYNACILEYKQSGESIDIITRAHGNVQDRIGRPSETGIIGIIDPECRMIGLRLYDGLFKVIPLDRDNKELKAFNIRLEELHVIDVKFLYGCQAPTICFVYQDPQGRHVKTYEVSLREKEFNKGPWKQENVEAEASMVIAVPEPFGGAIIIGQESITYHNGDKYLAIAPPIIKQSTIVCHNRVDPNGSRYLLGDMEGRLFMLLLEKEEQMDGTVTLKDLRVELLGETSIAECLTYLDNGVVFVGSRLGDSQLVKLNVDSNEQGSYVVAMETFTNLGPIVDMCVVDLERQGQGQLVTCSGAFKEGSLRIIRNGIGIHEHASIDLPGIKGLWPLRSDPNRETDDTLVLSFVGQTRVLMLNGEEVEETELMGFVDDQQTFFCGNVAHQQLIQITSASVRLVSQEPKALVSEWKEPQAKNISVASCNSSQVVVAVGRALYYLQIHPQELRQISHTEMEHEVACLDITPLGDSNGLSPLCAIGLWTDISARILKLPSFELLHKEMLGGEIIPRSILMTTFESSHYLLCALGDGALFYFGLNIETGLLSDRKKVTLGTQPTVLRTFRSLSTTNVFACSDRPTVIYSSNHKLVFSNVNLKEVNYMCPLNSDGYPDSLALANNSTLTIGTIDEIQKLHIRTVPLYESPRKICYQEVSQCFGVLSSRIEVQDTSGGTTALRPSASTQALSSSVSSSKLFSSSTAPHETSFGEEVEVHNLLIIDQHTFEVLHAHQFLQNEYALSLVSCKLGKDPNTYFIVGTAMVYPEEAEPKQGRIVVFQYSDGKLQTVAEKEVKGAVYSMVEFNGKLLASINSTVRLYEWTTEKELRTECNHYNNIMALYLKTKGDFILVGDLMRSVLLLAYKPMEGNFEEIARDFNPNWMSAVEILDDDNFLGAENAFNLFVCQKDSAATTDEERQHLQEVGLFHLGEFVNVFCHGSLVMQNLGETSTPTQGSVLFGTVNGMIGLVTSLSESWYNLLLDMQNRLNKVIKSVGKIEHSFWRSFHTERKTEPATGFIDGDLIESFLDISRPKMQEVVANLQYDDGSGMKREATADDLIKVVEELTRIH
T3 sequence (Q9UKT9 130-189 Q147A): as the sequence (Q9UKT9 130-189 Q147A/N149P/Q150I) above, with P20N, I21Q counted along it
T3 sequence (Q96SW2 whole entry, the tested form may be a part): as the sequence (Q96SW2 whole entry, the tested form may be a part) above
T3 sequence (Q16531 whole entry partner, the tested form may be a part): as the sequence (Q16531 whole entry partner, the tested form may be a part) above
T1 sequence (Q9UKT9 130-189): as the sequence (Q9UKT9 130-189 Q147A/N149P/Q150I) above, with A18Q, P20N, I21Q counted along it
T1 sequence (Q96SW2 whole entry, the tested form may be a part): as the sequence (Q96SW2 whole entry, the tested form may be a part) above
T1 sequence (Q16531 whole entry partner, the tested form may be a part): as the sequence (Q16531 whole entry partner, the tested form may be a part) above
T2 sequence (Q9UKT9 whole entry): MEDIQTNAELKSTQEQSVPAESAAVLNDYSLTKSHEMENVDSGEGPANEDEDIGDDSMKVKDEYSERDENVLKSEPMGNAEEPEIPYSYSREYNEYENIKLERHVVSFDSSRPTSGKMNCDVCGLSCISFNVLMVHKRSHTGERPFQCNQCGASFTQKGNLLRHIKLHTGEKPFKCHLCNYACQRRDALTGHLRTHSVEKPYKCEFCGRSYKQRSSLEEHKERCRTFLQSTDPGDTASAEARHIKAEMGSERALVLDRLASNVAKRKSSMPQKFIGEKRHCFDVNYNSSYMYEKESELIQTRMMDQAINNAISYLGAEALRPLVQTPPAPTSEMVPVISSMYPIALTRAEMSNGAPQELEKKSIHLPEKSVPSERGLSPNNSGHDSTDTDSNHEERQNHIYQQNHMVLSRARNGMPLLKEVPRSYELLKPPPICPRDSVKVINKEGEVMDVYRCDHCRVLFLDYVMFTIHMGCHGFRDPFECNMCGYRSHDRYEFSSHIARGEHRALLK
T2 sequence (Q96SW2 whole entry): as the sequence (Q96SW2 whole entry, the tested form may be a part) above
T2 sequence (Q16531 whole entry partner): as the sequence (Q16531 whole entry partner, the tested form may be a part) above
T5 sequence (Q9UKT9 130-189 Q147W/N149E/Q150I): as the sequence (Q9UKT9 130-189 Q147A/N149P/Q150I) above, with A18W, P20E counted along it
T5 sequence (Q96SW2 whole entry, the tested form may be a part): as the sequence (Q96SW2 whole entry, the tested form may be a part) above
T6 sequence (Q9UKT9 130-189 Q147W/N149E/Q150I): as the sequence (Q9UKT9 130-189 Q147A/N149P/Q150I) above, with A18W, P20E counted along it
T6 sequence (Q96SW2 whole entry, the tested form may be a part): as the sequence (Q96SW2 whole entry, the tested form may be a part) above
T4 sequence (Q13422 whole entry): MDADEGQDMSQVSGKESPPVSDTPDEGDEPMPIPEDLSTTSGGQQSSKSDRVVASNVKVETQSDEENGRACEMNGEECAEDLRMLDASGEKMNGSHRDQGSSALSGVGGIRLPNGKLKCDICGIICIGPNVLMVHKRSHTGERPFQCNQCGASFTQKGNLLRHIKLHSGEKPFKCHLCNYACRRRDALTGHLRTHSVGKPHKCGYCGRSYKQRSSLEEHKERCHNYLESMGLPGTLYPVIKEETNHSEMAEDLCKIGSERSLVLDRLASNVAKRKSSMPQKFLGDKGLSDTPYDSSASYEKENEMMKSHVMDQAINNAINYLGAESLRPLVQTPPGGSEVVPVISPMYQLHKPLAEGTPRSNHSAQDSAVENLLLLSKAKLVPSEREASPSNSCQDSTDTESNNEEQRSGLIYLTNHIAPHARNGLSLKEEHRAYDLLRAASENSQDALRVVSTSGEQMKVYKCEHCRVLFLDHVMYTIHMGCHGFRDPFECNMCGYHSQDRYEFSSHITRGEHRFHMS
T4 sequence (Q96SW2 whole entry): as the sequence (Q96SW2 whole entry, the tested form may be a part) above
T4 sequence (Q16531 whole entry partner): as the sequence (Q16531 whole entry partner, the tested form may be a part) above

## CC(C)(C)c1ccc2c(c1)C(=O)N(C1CCC(=O)NC1=O)C2=O (stereo not drawn) [Compound 19]
[1]; [9]
  Log2FC: -1.8291 and -1.83
[1]; [10]
  logFC: 3.42
[1]; [11]
  logFC: 2.8476
[1]; [12]
  logFC: 0.3339
[1]; [13]
  logFC: 0.9661
[1]; degron residues 146/147/149/150/152/153/154/155/167: FAEIGAAFL
  Log2FC: 3.8965
[1]; degron residues 146/147/149/150/152/153/154/155/167: FAEIGARFL
  Log2FC: 3.8372
[1]; degron residues 146/147/149/150/152/153/154/155/167: FAEVGAKFL (AEVK)
  Log2FC: 3.9176 and 3.92 and 3.918
[1]; degron residues 146/147/149/150/152/153/154/155/167: FAEVGARFL
  Log2FC: 3.9084
[1]; degron residues 146/147/149/150/152/153/154/155/167: FAEVGASFL
  Log2FC: 3.8698
[1]; degron residues 146/147/149/150/152/153/154/155/167: FANQGASFL (ANQS)
  Log2FC: -0.98
[1]; degron residues 146/147/149/150/152/153/154/155/167: FAPIGASFL (APIS)
  Log2FC: 3.73
[1]; degron residues 146/147/149/150/152/153/154/155/167: FFDIGAPFL (FDIP)
  Log2FC: 3.9195 and 3.92 and 3.919
[1]; degron residues 146/147/149/150/152/153/154/155/167: FFEVGAPFL (FEVP)
  Log2FC: 3.9979 and 4.00 and 3.998
[1]; degron residues 146/147/149/150/152/153/154/155/167: FFPIGAPFL
  Log2FC: 3.9164
[1]; degron residues 146/147/149/150/152/153/154/155/167: FGEVGARFL
  Log2FC: 3.8587
[1]; degron residues 146/147/149/150/152/153/154/155/167: FGPIGACFL
  Log2FC: 3.9002
[1]; degron residues 146/147/149/150/152/153/154/155/167: FGPVGACFL
  Log2FC: 3.8841
[1]; degron residues 146/147/149/150/152/153/154/155/167: FGPVGAMFL
  Log2FC: 3.8585
[1]; degron residues 146/147/149/150/152/153/154/155/167: FHEIGAPFL (HEIP)
  Log2FC: 4.0013 and 4.00 and 4.001
[1]; [14]
  Log2FC: 3.8152
[1]; [15]
  Log2FC: 3.9155 and 3.96 and 3.955
[1]; degron residues 146/147/149/150/152/153/154/155/167: FYEIGAKFL
  Log2FC: 3.9035
[1]; degron residues 146/147/149/150/152/153/154/155/167: FYEIGAPFL
  Log2FC: 3.8608
[1]; degron residues 146/147/149/150/152/153/154/155/167: FYEVGAAFL
  Log2FC: 3.8726
[1]; degron residues 146/147/149/150/152/153/154/155/167: FYNIGAPFL
  Log2FC: 3.8168
[1]; degron residues 146/147/149/150/152/153/154/155/167: FYPIGAPFL
  Log2FC: 3.8626
[2]
  Degradation pDC50 WT: 6.05
  DC50: 759 nM
  pDC50: 6.12
[3]; APIS, Jurkat, 18 h
  DC50: 74.1 nM
  pDC50: 7.13
[3]; DC50(WT)/DC50(APIS)
  Selectivity (WT/mutant): 10.2 and 10
[4]
  endogenous IKZF3 levels (Western blot): remained unaffected
  degradation of endogenous IKZF3 (Western blot): do not induce degradation of endogenous IKZF3
[5]; ANQS, Jurkat, 18 h, Fig 5A
  DC50: 537 nM
  pDC50: 6.27
[5]; DC50(WT)/DC50(ANQS), Fig 5A
  Selectivity (WT/mutant): 1.4
[5]; Jurkat, 18 h
  Dmax: 87%
[6]
  degradation of endogenous IKZF1: did not induce degradation of endogenous IKZF1

## CN1CCN(c2ccc3c(c2)C(=O)N(C2CCC(=O)NC2=O)C3=O)CC1 (stereo not drawn) [Compound 23]
[1]; [9]
  Log2FC: -1.4561 and -1.46
[1]; [10]
  logFC: 2.104
[1]; [11]
  logFC: 0.9928
[1]; [12]
  logFC: -0.7621
[1]; [13]
  logFC: -0.08962
[1]; degron residues 146/147/149/150/152/153/154/155/167: FWDIGAAFL (WDIA)
  Log2FC: 4.2601 and 4.26
[1]; degron residues 146/147/149/150/152/153/154/155/167: FWDIGANFL
  Log2FC: 4.2762 and 4.276
[1]; degron residues 146/147/149/150/152/153/154/155/167: FWDIGASFL
  Log2FC: 4.2199
[1]; degron residues 146/147/149/150/152/153/154/155/167: FWDVGAAFL
  Log2FC: 4.1742
[1]; degron residues 146/147/149/150/152/153/154/155/167: FWDVGAQFL
  Log2FC: 4.2369
[1]; degron residues 146/147/149/150/152/153/154/155/167: FWDVGASFL
  Log2FC: 4.2017
[1]; [14]
  Log2FC: 4.1830
[1]; degron residues 146/147/149/150/152/153/154/155/167: FWEIGAHFL
  Log2FC: 4.1861
[1]; [15]
  Log2FC: 4.1692
[1]; degron residues 146/147/149/150/152/153/154/155/167: FWEIGASFL (WEIS)
  Log2FC: 4.4149 and 4.45 and 4.449
[1]; degron residues 146/147/149/150/152/153/154/155/167: FWEQGASFL
  Log2FC: 4.1915
[1]; degron residues 146/147/149/150/152/153/154/155/167: FWEVGAQFL
  Log2FC: 4.1344
[1]; degron residues 146/147/149/150/152/153/154/155/167: FWEVGASFL
  Log2FC: 4.2567 and 4.257
[1]; degron residues 146/147/149/150/152/153/154/155/167: FWNIGAQFL (WNIQ)
  Log2FC: 4.2715 and 4.27 and 4.275
[1]; degron residues 146/147/149/150/152/153/154/155/167: FWNQGASFL (WNQS)
  Log2FC: 3.90
[1]; degron residues 146/147/149/150/152/153/154/155/167: FWNVGASFL
  Log2FC: 4.1357
[1]; degron residues 146/147/149/150/152/153/154/155/167: FWPVGAQFL
  Log2FC: 4.1974
[1]; degron residues 146/147/149/150/152/153/154/155/167: FYEIGASFL
  Log2FC: 4.1371
[1]; degron residues 146/147/149/150/152/153/154/155/167: FYEVGAEFL
  Log2FC: 4.1417
[1]; degron residues 146/147/149/150/152/153/154/155/167: FYEVGASFL
  Log2FC: 4.2356
[2]
  Degradation pDC50 WT: 5.96
  DC50: 631 nM
  pDC50: 6.20
[4]
  endogenous IKZF3 levels (Western blot): remained unaffected
  degradation of endogenous IKZF3 (Western blot): do not induce degradation of endogenous IKZF3
Jurkat cells
  proteins degraded (quantitative proteomics): no major effect on any of the 9644 quantified proteins
[5]; Jurkat, 18 h
  Dmax: 79%
[7]
  D max: 66%
  DC50: 1270 nM
[6]
  degradation of endogenous IKZF1: did not induce degradation of endogenous IKZF1
[8]
  proteins degraded (quantitative proteomics): did not induce any protein degradation
HA-CDK9-WEIS
  D max: 70%
  DC50: 299 nM

Reference: paper PMC12645437, “Orthogonal IMiD-Degron Pairs Induce Selective Protein Degradation in Cells” (ACS Chemical Biology, 2025)
